Pest or weed control data for five compounds are collected here from US8754242B2, “Herbicides” (Syngenta Crop Protection LLC, priority 2007, dated 2014).

Holding throughout (assay type): in vivo
Assay [1] has as its system Alopecurus myosuroides (ALOMY). As to the kind of experiment: Test Example 1 pre-emergence herbicidal activity. As to conditions: Alopecurus myosuroides, 480 h, rate 250 g/ha, evaluated 20 days later, read-out: Pre-emergence activity ALOMY (100=total damage to plant; 0=no damage to plant). In outline: (§1)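 Once sown in standard soil, pots received an aqueous spray of the formulated active ingredient, either after one day or after ten days of controlled glasshouse growth. Plants then grew under optimum greenhouse conditions. Herbicidal effect was assessed visually 15 (post-emergence) or 20 (pre-emergence) days later, 100 meaning total plant damage.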

The test system of assay [2] is Avena fatua (AVEFA). As to the kind of experiment: Test Example 1 pre-emergence herbicidal activity. The following applies: Avena fatua, 480 h, rate 250 g/ha, evaluated 20 days later, read-out: Pre-emergence activity AVEFA (100=total damage to plant; 0=no damage to plant). In outline: as §1
Assay [3] concerns Digitaria sanguinalis (DIGSA). As to the kind of experiment: Test Example 1 pre-emergence herbicidal activity. The following applies: Digitaria sanguinalis, 480 h, rate 250 g/ha, evaluated 20 days later, read-out: Pre-emergence activity DIGSA (100=total damage to plant; 0=no damage to plant). In outline:
as §1

Assay [4] deals with Echinochloa crus-galli (ECHCG). In words: Test Example 1 pre-emergence herbicidal activity. As to conditions: Echinochloa crus-galli, 480 h, rate 250 g/ha, evaluated 20 days later, read-out: Pre-emergence activity ECHCG (100=total damage to plant; 0=no damage to plant). In outline:
as §1

Assay [5] concerns Lolium perenne (LOLPE). As to the kind of experiment: Test Example 1 pre-emergence herbicidal activity. As to conditions: Lolium perenne, 480 h, rate 250 g/ha, evaluated 20 days later, read-out: Pre-emergence activity LOLPE (100=total damage to plant; 0=no damage to plant). In outline: as §1
For assay [6], the system named is Setaria faberi (SETFA). As to the kind of experiment: Test Example 1 pre-emergence herbicidal activity. The following applies: Setaria faberi, 480 h, rate 250 g/ha, evaluated 20 days later, read-out: Pre-emergence activity SETFA (100=total damage to plant; 0=no damage to plant). In outline:
as §1

In assay [7] the test system is Alopecurus myosuroides (ALOMY). As to the kind of experiment: Test Example 1 post-emergence herbicidal activity. As to conditions: 360 h, rate 125 g/ha, evaluated 15 days later, read-out: Post-emergence activity ALOMY (100=total damage to plant; 0=no damage to plant). In outline: as §1
Assay [8] deals with Avena fatua (AVEFA). In words: Test Example 1 post-emergence herbicidal activity. The following applies: 360 h, rate 125 g/ha, evaluated 15 days later, read-out: Post-emergence activity AVEFA (100=total damage to plant; 0=no damage to plant). In outline: as §1
For assay [9], the system named is Digitaria sanguinalis (DIGSA). In words: Test Example 1 post-emergence herbicidal activity. As to conditions: 360 h, rate 125 g/ha, evaluated 15 days later, read-out: Post-emergence activity DIGSA (100=total damage to plant; 0=no damage to plant). In outline: as §1
Assay [10] concerns Echinochloa crus-galli (ECHCG). As to the kind of experiment: Test Example 1 post-emergence herbicidal activity. As to conditions: 360 h, rate 125 g/ha, evaluated 15 days later, read-out: Post-emergence activity ECHCG (100=total damage to plant; 0=no damage to plant). In outline: as §1
Assay [11] deals with Lolium perenne (LOLPE). In words: Test Example 1 post-emergence herbicidal activity. The following applies: 360 h, rate 125 g/ha, evaluated 15 days later, read-out: Post-emergence activity LOLPE (100=total damage to plant; 0=no damage to plant). In outline: as §1
In assay [12] the test system is Setaria faberi (SETFA). As to the kind of experiment: Test Example 1 post-emergence herbicidal activity. The following applies: 360 h, rate 125 g/ha, evaluated 15 days later, read-out: Post-emergence activity SETFA (100=total damage to plant; 0=no damage to plant). In outline: as §1

Take `CCc1cc(C)cc(CC)c1C1=C(O)[C@@H]2[C@@H]3O[C@@H](C[C@H]3c3cc(F)cc(F)c3)[C@@H]2C1=O` [Example T173]: the pest or weed control at 250 g/ha in assay [1] is 90%; in the assay with Avena fatua (AVEFA) [2] it was 70%; in assay [3], 70%; in assay [4], 70%; in the assay with Lolium perenne (LOLPE) [5], 100%; with Setaria faberi (SETFA) [6], 60%. The pest or weed control at 125 g/ha in assay [7] worked out at 100%; with Avena fatua (AVEFA) [8], 90%; in assay [9], 70%; in assay [10], 100%; with Lolium perenne (LOLPE) [11], 90%; with Setaria faberi (SETFA) [12] it was 90%.
Regarding `CCc1cc(C)cc(CC)c1C1=C(O)[C@@H]2[C@@H]3O[C@@H](C[C@H]3c3ccccc3[N+](=O)[O-])[C@@H]2C1=O` [Example T177], the pest or weed control at 250 g/ha in assay [1] was 60%; in the assay on Avena fatua (AVEFA) [2] it was 50%; in assay [3] it was 10%; in assay [4] it was 70%; with Lolium perenne (LOLPE) [5], 70%; in the assay with Setaria faberi (SETFA) [6], 50%. Besides, the pest or weed control at 125 g/ha in [7] is 80%; in the assay on Avena fatua (AVEFA) [8], 70%; in assay [9], 30%; in [10], 80%; in the assay with Lolium perenne (LOLPE) [11], 30%; with Setaria faberi (SETFA) [12] it was 20%.
Take `CCc1cc(C)cc(CC)c1C1=C(O)[C@@H]2[C@@H]3O[C@@H](C[C@H]3c3cccc(C)c3)[C@@H]2C1=O` [Example T179]: the pest or weed control at 250 g/ha turned out to be 70% in assay [1]; 60% with Avena fatua (AVEFA) [2]; 60% in assay [3]; 70% in assay [4]; 80% in the assay with Lolium perenne (LOLPE) [5]; 10% with Setaria faberi (SETFA) [6]. Further, the pest or weed control at 125 g/ha was 80% in [7]; 80% in the assay with Avena fatua (AVEFA) [8]; 50% in assay [9]; 70% in assay [10]; 80% in the assay with Lolium perenne (LOLPE) [11]; 10% in the assay with Setaria faberi (SETFA) [12].
For `CCc1cc(C)cc(CC)c1C1=C(O)[C@@H]2[C@@H]3O[C@@H](C[C@H]3c3cccc(C#N)c3)[C@@H]2C1=O` [Example T182], the pest or weed control at 250 g/ha in assay [1] was found to be 30%; in the assay on Avena fatua (AVEFA) [2], 50%; in assay [3], 80%; in assay [4], 90%; in the assay on Lolium perenne (LOLPE) [5] it was 40%; in the assay on Setaria faberi (SETFA) [6], 50%. The pest or weed control at 125 g/ha came to 100% in [7]; 90% with Avena fatua (AVEFA) [8]; 100% in assay [9]; 100% in assay [10]; 80% in the assay on Lolium perenne (LOLPE) [11]; 100% with Setaria faberi (SETFA) [12].
With `CCc1cc(C)cc(CC)c1C1=C(O)[C@@H]2[C@@H]3O[C@@H](C[C@H]3c3ccc(F)cc3)[C@@H]2C1=O` [Example T185], the pest or weed control at 250 g/ha was found to be 80% in assay [1]; 80% in the assay on Avena fatua (AVEFA) [2]; 80% in assay [3]; 80% in assay [4]; 100% with Lolium perenne (LOLPE) [5]; 80% in the assay on Setaria faberi (SETFA) [6]. The pest or weed control at 125 g/ha in assay [7] amounted to 90%; with Avena fatua (AVEFA) [8], 80%; in assay [9], 100%; in assay [10], 100%; in the assay with Lolium perenne (LOLPE) [11] it was 80%; with Setaria faberi (SETFA) [12], 100%.
